Results taken from US20230085307A1, “PYRIDAZINONE COMPOUND AND HERBICIDE” (NISSAN CHEMICAL CORPORATION, priority 2019, published 2023).

What was measured:
barnyard grass [1] = experiment: Test Example 5: herbicidal effect by foliage application, plastic box (Table 20, symbol H); format: in vivo, barnyard grass (Echinochloa crus-galli)
In short: (§1)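 Foliar spray test: emulsion formulation diluted in water to a set application rate, sprayed onto 14-day-old plants raised in diluvial soil at 25° C to 30° C under glass. Both herbicidal effect and crop effect rated visually three weeks later.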

persian speedwell = experiment: Test Example 5: herbicidal effect by foliage application, plastic box (Table 20, symbol R); format: in vivo, Persian speedwell (Veronica persica)
In short: as §1

chickweed = experiment: Test Example 5: herbicidal effect by foliage application, plastic box (Table 20, symbol P); format: in vivo, common chickweed (Stellaria media)
In short: as §1

Italian ryegrass = experiment: Test Example 5: herbicidal effect by foliage application, plastic box (Table 20, symbol K); format: in vivo, Italian ryegrass (Lolium multiflorum)
In short: as §1

Japanese bulrush = experiment: Test Example 1: herbicidal activity, application before weed generation under submerged conditions (Table 16, symbol B); format: in vivo, Japanese bulrush (Schoenoplectus juncoides); details: for Herbicidal effect on B: Japanese bulrush (grade 0-5): 320 g/ha applied herbicide
In short: (§2)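 Submerged Wagner pots (alluvial soil, 4 cm water) sown with weed seeds and planted with 2.5-leaf rice seedlings; emulsifiable concentrate diluted in water applied to water surface on sowing day. Held in greenhouse at 25-30 °C; injury scored 0-5 by herbicidal rate after three weeks.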

blackgrass = experiment: Test Example 5: herbicidal effect by foliage application, plastic box (Table 20, symbol J); format: in vivo, blackgrass (Alopecurus myosuroides)
In short: as §1

windgrass = experiment: Test Example 5: herbicidal effect by foliage application, plastic box (Table 20, symbol L); format: in vivo, windgrass (Apera spica-venti); details: foliage application, AAH 320 g/ha
In short: as §1

late watergrass = experiment: Test Example 1: herbicidal activity, application before weed generation under submerged conditions (Table 16, symbol A); format: in vivo, late watergrass (Echinochloa oryzicola); details: for Herbicidal effect on A: late watergrass (grade 0-5): 320 g/ha applied herbicide
In short: as §2

wild oat = experiment: Test Example 5: herbicidal effect by foliage application, plastic box (Table 20, symbol I); format: in vivo, wild oat (Avena fatua)
In short: as §1

redroot pigweed = experiment: Test Example 5: herbicidal effect by foliage application, plastic box (Table 20, symbol N); format: in vivo, redroot pigweed (Amaranthus retroflexus)
In short: as §1

southern crabgrass = experiment: Test Example 5: herbicidal effect by foliage application, plastic box (Table 20, symbol F); format: in vivo, southern crabgrass (Digitaria ciliaris)
In short: as §1

velvetleaf = experiment: Test Example 5: herbicidal effect by foliage application, plastic box (Table 20, symbol M); format: in vivo, velvetleaf (Abutilon theophrasti)
In short: as §1

green foxtail = experiment: Test Example 5: herbicidal effect by foliage application, plastic box (Table 20, symbol G); format: in vivo, green foxtail (Setaria viridis)
In short: as §1

lambsquarters = experiment: Test Example 5: herbicidal effect by foliage application, plastic box (Table 20, symbol O); format: in vivo, lambsquarters (Chenopodium album)
In short: as §1

oval-leafed pondweed = experiment: Test Example 1: herbicidal activity, application before weed generation under submerged conditions (Table 16, symbol C); format: in vivo, oval-leafed pondweed (Monochoria vaginalis); details: for Herbicidal effect on C: oval-leafed pondweed (grade 0-5): 320 g/ha applied herbicide
In short: as §2

rice flat sedge = experiment: Test Example 3: herbicidal effect by foliage application, Wagner pot (Table 18, symbol E); format: in vivo, rice flat sedge (Cyperus iria); details: 320 g/ha
In short: (§3)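 Plants were sown in alluvial soil held under 0.1–0.5 cm standing water and grown 14 days in a greenhouse at 25–30 °C. An emulsifiable formulation, water-diluted to the set dose, was then sprayed onto the foliage, and effects were scored three weeks later using previously defined criteria.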

barnyard grass [2] = experiment: Test Example 3: herbicidal effect by foliage application, Wagner pot (Table 18, symbol H); format: in vivo, barnyard grass (Echinochloa crus-galli); details: 320 g/ha
In short: as §3

Chinese sprangletop = experiment: Test Example 3: herbicidal effect by foliage application, Wagner pot (Table 18, symbol D); format: in vivo, chinese sprangletop (Leptochloa chinensis); details: 320 g/ha
In short: as §3

[3] = foliage application, AAH 320 g/ha, evaluated three weeks after application
[4] = foliage application, AAH 320 g/ha, three weeks after application
[5] = amount of applied herbicide 320 g/ha, foliage application after 14-day growth, evaluated three weeks after application
[6] = amount of applied herbicide 320 g/ha

SMILES: Cc1nn(C)c(=O)c(-c2c(-c3cccc(OC(C)C#N)c3)sc3ccc(F)cc23)c1O (centres unmarked) [2-277]
- H: barnyard grass, herbicidal effect (criteria 0-5) (barnyard grass [1]; [3]): 0 (Herbicidal rate of 5% or less (almost no effect))
- R: persian speedwell, herbicidal effect (criteria 0-5) (persian speedwell; [3]): 2 (Herbicidal rate of 20% or more and less than 40%)
- P: chickweed, herbicidal effect (criteria 0-5) (chickweed; [3]): 5 (Herbicidal rate of 90% or more (almost completely withered))
- K: Italian ryegrass, herbicidal effect (criteria 0-5) (Italian ryegrass; [3]): 0 (Herbicidal rate of 5% or less (almost no effect))
- Herbicidal effect on B: Japanese bulrush (grade 0-5) (Japanese bulrush): 0 (Herbicidal rate of 5% or less (almost no effect))
- J: blackgrass, herbicidal effect (criteria 0-5) (blackgrass; [3]): 0 (Herbicidal rate of 5% or less (almost no effect))
- L: windgrass, herbicidal effect (criteria 0-5) (windgrass; evaluated three weeks after application): 0 (Herbicidal rate of 5% or less (almost no effect))
- Herbicidal effect on A: late watergrass (grade 0-5) (late watergrass): 1 (Herbicidal rate of 5% or more and less than 20%)
- I: wild oat, herbicidal effect (criteria 0-5) (wild oat; [3]): 0 (Herbicidal rate of 5% or less (almost no effect))
- N: redroot pigweed, herbicidal effect (criteria 0-5) (redroot pigweed; [3]): 2 (Herbicidal rate of 20% or more and less than 40%)
- F: southern crabgrass, herbicidal effect (criteria 0-5) (southern crabgrass; [3]): 0 (Herbicidal rate of 5% or less (almost no effect))
- M: velvetleaf, herbicidal effect (criteria 0-5) (velvetleaf; [3]): 0 (Herbicidal rate of 5% or less (almost no effect))
- G: green foxtail, herbicidal effect (criteria 0-5) (green foxtail; [3]): 0 (Herbicidal rate of 5% or less (almost no effect))
- O: lambsquarters, herbicidal effect (criteria 0-5) (lambsquarters; [3]): 0 (Herbicidal rate of 5% or less (almost no effect))
- Herbicidal effect on C: oval-leafed pondweed (grade 0-5) (oval-leafed pondweed): 2 (Herbicidal rate of 20% or more and less than 40%)

SMILES: COc1cccc(OC)c1-c1sc2ccccc2c1-c1c(O)c(C)nn(C)c1=O [1-158]
- H: barnyard grass, herbicidal effect (barnyard grass [1]; [4]): 0 (Herbicidal rate of 5% or less (almost no effect))
- herbicidal effect on E (rice flat sedge), rating 0-5 (rice flat sedge): 0 (Herbicidal rate of 5% or less (almost no effect))
- R: persian speedwell, herbicidal effect (persian speedwell; [4]): 5 (Herbicidal rate of 90% or more (almost completely withered))
- P: chickweed, herbicidal effect (chickweed; [4]): 5 (Herbicidal rate of 90% or more (almost completely withered))
- K: Italian ryegrass, herbicidal effect (Italian ryegrass; [4]): 0 (Herbicidal rate of 5% or less (almost no effect))
- Herbicidal effect on B: Japanese bulrush (grade 0-5) (Japanese bulrush): 2 (Herbicidal rate of 20% or more and less than 40%)
- J: blackgrass, herbicidal effect (blackgrass; [4]): 0 (Herbicidal rate of 5% or less (almost no effect))
- L: windgrass, herbicidal effect (windgrass; three weeks after application): 0 (Herbicidal rate of 5% or less (almost no effect))
- Herbicidal effect on A: late watergrass (grade 0-5) (late watergrass): 0 (Herbicidal rate of 5% or less (almost no effect))
- herbicidal effect on H (barnyard grass), rating 0-5 (barnyard grass [2]): 2 (Herbicidal rate of 20% or more and less than 40%)
- I: wild oat, herbicidal effect (wild oat; [4]): 0 (Herbicidal rate of 5% or less (almost no effect))
- N: redroot pigweed, herbicidal effect (redroot pigweed; [4]): 0 (Herbicidal rate of 5% or less (almost no effect))
- F: southern crabgrass, herbicidal effect (southern crabgrass; [4]): 0 (Herbicidal rate of 5% or less (almost no effect))
- M: velvetleaf, herbicidal effect (velvetleaf; [4]): 0 (Herbicidal rate of 5% or less (almost no effect))
- G: green foxtail, herbicidal effect (green foxtail; [4]): 0 (Herbicidal rate of 5% or less (almost no effect))
- O: lambsquarters, herbicidal effect (lambsquarters; [4]): 0 (Herbicidal rate of 5% or less (almost no effect))
- Herbicidal effect on C: oval-leafed pondweed (grade 0-5) (oval-leafed pondweed): 0 (Herbicidal rate of 5% or less (almost no effect))
- herbicidal effect on D (Chinese sprangletop), rating 0-5 (Chinese sprangletop): 0 (Herbicidal rate of 5% or less (almost no effect))

SMILES: CCCC(=O)Oc1c(C)nn(C)c(=O)c1-c1c(-c2ccc(OC)c(OC)c2)sc2cc(F)c(F)cc12 [5-034]
- Herbicidal effect by foliage application, H: barnyard grass (barnyard grass [1]; [5]): 0 (Herbicidal rate of 5% or less (almost no effect))
- herbicidal effect on rice flat sedge (E) (rice flat sedge): 0 (Herbicidal rate of 5% or less (almost no effect))
- Herbicidal effect by foliage application, R: persian speedwell (persian speedwell; [5]): 4 (Herbicidal rate of 70% or more and less than 90%)
- Herbicidal effect by foliage application, P: chickweed (chickweed; [5]): 5 (Herbicidal rate of 90% or more (almost completely withered))
- Herbicidal effect by foliage application, K: Italian ryegrass (Italian ryegrass; [5]): 0 (Herbicidal rate of 5% or less (almost no effect))
- Herbicidal effect, B: Japanese bulrush (Japanese bulrush; [6]): 0 (Herbicidal rate of 5% or less (almost no effect))
- Herbicidal effect by foliage application, J: blackgrass (blackgrass; [5]): 0 (Herbicidal rate of 5% or less (almost no effect))
- Herbicidal effect, A: late watergrass (late watergrass; [6]): 3 (Herbicidal rate of 40% or more and less than 70%)
- herbicidal effect on barnyard grass (H) (barnyard grass [2]): 4 (Herbicidal rate of 70% or more and less than 90%)
- Herbicidal effect by foliage application, I: wild oat (wild oat; [5]): 0 (Herbicidal rate of 5% or less (almost no effect))
- Herbicidal effect by foliage application, N: redroot pigweed (redroot pigweed; [5]): 3 (Herbicidal rate of 40% or more and less than 70%)
- Herbicidal effect by foliage application, F: southern crabgrass (southern crabgrass; [5]): 0 (Herbicidal rate of 5% or less (almost no effect))
- Herbicidal effect by foliage application, M: velvetleaf (velvetleaf; [5]): 3 (Herbicidal rate of 40% or more and less than 70%)
- Herbicidal effect by foliage application, G: green foxtail (green foxtail; [5]): 3 (Herbicidal rate of 40% or more and less than 70%)
- Herbicidal effect by foliage application, O: lambsquarters (lambsquarters; [5]): 4 (Herbicidal rate of 70% or more and less than 90%)
- Herbicidal effect, C: oval-leafed pondweed (oval-leafed pondweed; [6]): 0 (Herbicidal rate of 5% or less (almost no effect))
- herbicidal effect on Chinese sprangletop (D) (Chinese sprangletop): 1 (Herbicidal rate of 5% or more and less than 20%)
